Measurements reported in publication PMC3238229 (Genetics, Selection, Evolution : GSE, 2003).
Where two headings read alike, the source gives them in different places. Ends that are not written are not given here.

Assays:
[1] = test system: peptide-specific T-lymphocytes from BMC of a cow homozygous for BoLA-DRB3*2703; type: cell-based, Holstein cow
[2] = test system: BoLA-DRB3*2703; type: binding, bovine
[3] = test system: IFN-γ production by peptide-specific T-lymphocytes; type: cell-based, Holstein cow
[4] = test system: CD4+ and CD8+ peptide-specific T-lymphocytes from BMC of a cow homozygous for BoLA-DRB3*2703; type: cell-based, Holstein cow
[5] = target: BoLA-DRB3*2703 class II molecule (bovine)
[6] = target: BoLA-DRB3*2703 class II molecule (bovine); assay: competitive peptide binding to pu
[7] = target: BoLA-DRB3*2703 class II molecule (bovine); assay: binding of labelled peptide to pu

Row | Molecule | DNA synthesis of T-cells compared to naive cell cultures (in words) [1] | Binding affinity (designated high or low) [2] | IC50 [6] [µM] | other results
1 | KISQAVHAAHA [OVA332] | not significantly different | Low | – | IC50 ([2]; read-out: concentration required to inhibit BoLA class II-self-peptide binding by 50% (IC50)): > 640 µM
2 | QAVHAAHAEINE [OVA336] | not significantly different | Low | – | IFN-γ in culture supernatant compared to the naive cell culture [3]: less; IFN-γ in culture supernatant compared to the naive cell culture ([3]; 18 h): less; cell divisions of CD8+lo T-lymphocytes compared to the naive lymphocyte culture [4]: more cell divisions
3 | SSAESLKISQAV [OVA327] | significantly lower | Low | – | –
4 | SIINNYYMQQYQNSM (not fully specified) [FMD-VP4[20-34]] | – | – | – | IC50 [5]: 46.5 µM
5 | DVNEFRAVTPLGRPDAE [Self-peptide DQ (unlabelled competitor)] | – | – | 16.1 | –
6 | ISQAVHAAHAEIN [OVA335[323-335]] | – | – | 26.9 | –
7 | QAVHAAHAEINE [OVA336[325-336]] | – | – | > 320 | –
8 | SSAESLKISQAV [OVA327[316-327]] | – | – | > 320 | –
9 | ISQAVHAAHAEINEAGR [OVA339[323-339]] | – | – | 72.2 | –
10 | DVNEFRAVTPLGRPDAE (not fully specified) [Biotinylated self-peptide DQ] | – | – | – | other [7]: 58.2 pixels
